Data published in patent US5840918A, “Isoprenyl transferase inhibitors” (Eisai Co., Ltd., priority 1997, dated 1998).

Legend:
FTase = biological target: T1, FTase (Bos taurus, UniProt P29702+P49355); assay: Inhibition of FTase-mediated prenylation (in vitro prenylation assay); type: biochemical; details: Table 1; partially purified FTase, 3 μM recombinant H-ras, 440 nM [3H]FPP, 15 min 37° C
T1 construct: bovine brain by inference from the cited Moores et al. 1991
From the text: (§1) Nanomolar concentrations of the indicated compounds were sufficient to inhibit farnesylation of ras proteins in vitro. For screening candidate compounds useful for the treatment of ras-associated tumors, the FTase assay is preferred. […] Substitutions which confer GGTase specificity as taught herein also produced potent inhibitors of GGTase.

GGTase = assay: Inhibition of GGTase-mediated prenylation (in vitro prenylation assay); type: biochemical; details: Table 1; partially purified GGTase, 5 μM recombinant H-ras (61L, CAIL), 1 μM [3H] geranylgeranyl diphosphate
From the text: as §1

[1] = test system: H-ras farnesylation in H-ras (61L) transformed NIH3T3 fibroblasts; assay: Inhibition of H-ras farnesylation in whole cells (Western blot); type: cell-based, mouse
Method: The ability of compounds of the invention to inhibit H-ras farnesylation and rap1 geranylgeranylation in whole cells was determined. H-ras (61L) transformed NIH3T3 fibroblasts were generously provided by C. Der, Univ. N. Carolina. These fibroblasts were treated for 24 h with 50 μM lovastatin (control) or the indicated concentrations of inhibitor. The cells were lysed in 1% NP-40, 5 mM Tris-HCl (pH 8.0), 5 mM EDTA, 0.1 mM N-tosyl-L-phenylalanine chloromethyl ketone, 0.1 mM N-tosyl-L-lysine chloromethyl ketone, and 1 mM phenylmethylsulfonyl fluoride. The lysate was centrifuged (15000×g, 5 min.) and the supernatant was used as a cell extract. […] After transfer to IMMOBILON P™ membrane (Millipore), the blots were probed with LA069 mouse monoclonal antibody to H-ras (Quality Biotech), or rabbit polyclonal antibody to rap1/Krev (Santa Cruz Biotechnology). All Western blots were developed using ECL chemiluminescent reagents (Amersham).

[2] = Mus musculus, NIH3T3, 24 h, Table 2

IC50 (FTase)	IC50 (GGTase)	SMILES	IC50 [1, 2]	IC50 ([1]; Table 2, 24 h)
16 nM	7420 nM	COC(=O)[C@H](CCS(C)(=O)=O)NC(=O)c1cc(C/C=C/C(N)CS)ccc1-c1ccsc1 (stereo partly shown) [PM202]	1200 nM	–
180 nM	1400 nM	COC(=O)[C@H](CCSC)NC(=O)c1cc(C/C=C/[C@@H](N)CS)ccc1-c1ccccc1 [PM041]	2300 nM	–
38 nM	270 nM	NC(/C=C/Cc1ccc(-c2ccsc2)c(C(=O)N[C@@H](Cc2cccs2)C(=O)O)c1)CS (stereo partly shown) [PM152]	40300 nM	–
3 nM	2200 nM	COc1ccc(C/C=C/C(N)CS)cc1C(=O)N[C@@H](CCSC)C(=O)O (stereo partly shown) [PM122]	23400 nM	–
170 nM	1680 nM	CSCC[C@H](NC(=O)c1cc(C/C=C/C(N)CS)ccc1-c1ccccc1)C(N)=O (stereo partly shown) [PM081]	23400 nM	–
9 nM	420 nM	CCc1ccc(C/C=C/C(N)CS)cc1C(=O)N[C@@H](CCSC)C(=O)O (stereo partly shown) [PM062]	360 nM	–
18 nM	130 nM	NC(C=CCc1ccc(-c2ccsc2)c(C(=O)NC(Cc2cccs2)C(=O)O)c1)CSSCC(N)C=CCc1ccc(-c2ccsc2)c(C(=O)NC(Cc2cccs2)C(=O)O)c1 (stereo not shown) [PM022]	13100 nM	–
0.9 nM	2140 nM	CS(=O)(=O)CC[C@H](NC(=O)c1cc(C/C=C/C(N)CS)ccc1-c1ccccc1)C(=O)O (stereo partly shown) [PM161]	18900 nM	–

The next lines start with the molecule.

SMILES	IC50 (FTase)	IC50 (GGTase)	IC50 [1, 2]	IC50 ([1]; Table 2, 24 h)
CC(C)CC(NC(=O)C(/C=C\[C@@H](/C=C/C(N)CS)C(C)C)Cc1ccccc1)C(=O)O (stereo partly shown) [PD381]	80 nM	–	–	–
CSCC[C@H](NC(=O)C(/C=C/[C@@H](/C=C/C(N)CS)C(C)(C)C)C(C)C)C(=O)O (single isomer, unassigned) [PD152]	23 nM	44 nM	320 nM	–
COC(=O)[C@H](CCS(C)(=O)=O)NC(=O)C(Cc1cccs1)NC[C@@H](/C=C/C(N)CS)C(C)C (stereo partly shown) [PA011]	140 nM	11000 nM	100 nM	–
CSCCC(NC(=O)C(/C=C\C(/C=C/C(N)CS)C(C)C)Cc1ccccc1)C(=O)O (stereo not shown) [PD311]	69 nM	570 nM	100 to 1000 nM	–
CSCC[C@H](NC(=O)C(/C=C/[C@@H](/C=C/[C@@H](N)CS)C(C)C)C(C)C)C(=O)NC(C)(C)C (stereo partly shown) [PD222]	710 nM	3040 nM	> 50000 nM	–
COC(=O)[C@H](CCSC)NC(=O)C(Cc1cccs1)N(C)C[C@@H](/C=C/C(N)CS)C(C)C (stereo partly shown) [PA131]	28 nM	1800 nM	39 nM	–
COC(=O)[C@H](CCS(C)(=O)=O)NC(=O)C(/C=C/[C@@H](/C=C/C(N)CS)C(C)C)C(C)C (stereo partly shown) [PD132]	245 nM	4770 nM	2600 nM	–
CSCC[C@H](NC(=O)C(/C=C/[C@@H](/C=C/C(N)CS)C(C)C)C(C)C)C(=O)O (stereo partly shown) [PD341]	0.2 nM	–	290 nM	–
C[C@H](/C=C/C(N)CS)/C=C/C(Cc1ccccc1)C(=O)N[C@@H](CCC(N)=O)C(=O)O (stereo partly shown) [PD102]	394 nM	–	–	75000 nM
CSCC[C@H](NC(=O)C(/C=C/C(/C=C/CCS)C(C)C)Cc1ccccc1)C(=O)O (single isomer, unassigned) [PD052]	2810 nM	8050 nM	–	–
CSCCC(=O)NCC(/C=C/[C@@H](/C=C/[C@@H](N)CS)C(C)C)C(C)C (stereo partly shown) [PD082]	1570 nM	–	–	–
CSCC[C@H](NC(=O)C(/C=C/[C@@H](/C=C/C(N)CS)Cc1ccccc1)C(C)C)C(=O)O (stereo partly shown) [PD391]	29 nM	–	16400 nM	–
COC(=O)C(CCSC)NC(=O)C(/C=C\[C@@H](/C=C/C(N)CS)C(C)C)Cc1ccccc1 (stereo partly shown) [PD371]	38 nM	–	90 nM	–
CSCC[C@H](NCC(/C=C\[C@@H](/C=C/C(N)CS)C(C)C)Cc1ccccc1)C(=O)O (stereo partly shown) [PD431]	6 nM	1080 nM	–	–
CC(C)[C@@H](/C=C\C(Cc1ccccc1)C(=O)NC(CO)C(=O)O)/C=C/C(N)CS (stereo partly shown) [PD361]	0.1 nM	–	3500 nM	–
